Starred links: 1 amine or outer side, 2 acyl side, 3 side chain; linkers in the order of their positions; H or OH if unused. Positions of bridges follow the written chain, without caps; N, C: chain ends. Non-standard residues stand in square brackets, D forms with d. Residues, ends and D or L forms follow the SMILES beside them. *: point of attachment. NMeAbu(3,3-F2-piperidino) = CN[C@@H](CCN1CCCC(F)(F)C1)C(=O)O; X10 = O=C([C@H]1C[C@@H](N2CCC(F)(F)CC2)CN1[*:1])[*:2]; X13 = O=C([C@@H]1C[C@H](N2CCC(F)(F)CC2)CN1[*:1])[*:2]; NMeAla(4-thiazolyl) = CN[C@@H](Cc1cscn1)C(=O)O; Phe(4-CHF2) = N[C@@H](Cc1ccc(C(F)F)cc1)C(=O)O; NMePhe(3-Cl) = CN[C@@H](Cc1cccc(Cl)c1)C(=O)O; X12 = CCCC[C@@H](O)[C@H](N[*:1])C(=O)[*:2]; hPhe(4-Cl) = N[C@@H](CCc1ccc(Cl)cc1)C(=O)O; X8 = O=C(CN(CCN1CCC(F)(F)CC1)[*:1])[*:2]; hhPhe = N[C@@H](CCCc1ccccc1)C(=O)O; X3 = O=C([C@H](CCCCO)N[*:1])[*:2]; NMeF = CN[C@@H](Cc1ccccc1)C(=O)O; NMeGABA = CN(CCCC(=O)[*:2])[*:1]; NMeI = CC[C@H](C)[C@H](NC)C(=O)O; CH2CONHtBu = CC(C)(C)NC(=O)C*; NMeL = CN[C@@H](CC(C)C)C(=O)O; NMeV = CN[C@H](C(=O)O)C(C)C; NMeAbu = CC[C@H](NC)C(=O)O; NPentylGly = CCCCCNCC(=O)O; hSer = N[C@@H](CCO)C(=O)O; NMeA = CN[C@@H](C)C(=O)O; Piperidide = C1CCN(*)CC1; dAbu = CC[C@@H](N)C(=O)O; CH2CMe2OH = CC(C)(O)C*; NBuGly = CCCCNCC(=O)O; NPrGly = CCCNCC(=O)O; Sar = CNCC(=O)O; tBu = CC(C)(C)*; CHF2 = FC(F)*
System: Caco-2 cells
Assay: Caco-2 membrane permeability, improved method as used in the following Examples (96-well, 20 to 24 h preincubation)
Assay type: in vitro ADME
Conditions: Papp, Caco-2 membrane permeability, improved method
Outline: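 Caco-2 monolayers were grown three weeks and preincubated 20–24 h at 37 °C with compound in DMEM+FaSSIF (1% DMSO) apically. The assay then used compound in FaSSIF/HBSS (1% DMSO, pH 6.0) apically and HBSS with 4% BSA (pH 7.4) basally. Basal samples were taken at 180 min for LC/MS, and Papp (cm/sec) was calculated.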

Which Caco-2 does the source give for CCOCC[C@@H]1NC(=O)[C@H](CC(C)C)N(C)C(=O)CN(C)C(=O)[C@H]([C@@H](C)O)NC(=O)[C@H](CC(C)C)N(C)C(=O)[C@H](CC(C)C)NC(=O)[C@H](Cc2ccccc2)N(C)C(=O)[C@@H](CC(C)C)NC(=O)C[C@@H](C(=O)N2CCCCC2)NC(=O)[C@H](CC(C)C)N(C)C(=O)[C@H](Cc2ccccc2)N(C)C1=O [pd444] ([dL][NMeF]L[NMeL]T[Sar][NMeL][hSer](Et)[NMeF][NMeL]D-Piperidide; lactam N-11) here?
Its Caco-2 is 1.1e-06 cm/s.

How did the Caco-2 turn out when CC(C)C[C@H]1C(=O)N[C@@H](CCCCO)C(=O)N(C)[C@@H](CC(C)C)C(=O)N(C)[C@@H](CC(C)C)C(=O)N[C@H](C(=O)N2CCCCC2)CC(=O)N(C)CCCC(=O)N(C)[C@@H](C(C)C)C(=O)N[C@@H](C(C)C)C(=O)N(C)[C@@H](Cc2ccccc2)C(=O)N(C)[C@@H](Cc2ccccc2)C(=O)N[C@@H](COC(C)(C)C)C(=O)N1C [pd447] ([NMeGABA][NMeV]V[NMeF][NMeF]S(tBu)[NMeL][X3][NMeL][NMeL]D-Piperidide; lactam N-11) was run?
Its Caco-2 is 1.1e-06 cm/s.

Same assay, conditions: human, Caco-2, 180 min

For CC(C)C[C@H]1C(=O)N[C@@H](COC(C)(C)C)C(=O)N(C)[C@@H](Cc2ccccc2)C(=O)N(C)[C@@H](C(C)C)C(=O)N[C@H](C(=O)N2CCCCC2)CC(=O)N[C@H](C(C)C)C(=O)N(C)[C@@H](C)C(=O)N[C@@H](CCc2ccc(Cl)cc2)C(=O)N(C)[C@@H](CC(C)C)C(=O)N[C@@H]([C@@H](C)O)C(=O)N(C)CC(=O)N1C [pd359] ([dV][NMeA][hPhe(4-Cl)][NMeL]T[Sar][NMeL]S(tBu)[NMeF][NMeV]D-Piperidide; lactam N-11), which Caco-2 is on record?
The Caco-2 was 1.1e-06 cm/s.

Which Caco-2 does the source give for CC(C)C[C@H]1C(=O)N[C@H](C(=O)N2CCCCC2)CC(=O)N(C)[C@@H](C)C(=O)N[C@@H](CCc2ccc(Cl)cc2)C(=O)N(C)[C@@H](CC(C)C)C(=O)N(C)[C@@H](CC(C)C)C(=O)N[C@@H](C)C(=O)N(C)[C@@H](Cc2ccccc2)C(=O)N(C)[C@@H](C(C)C)C(=O)N[C@@H]([C@@H](C)O)C(=O)N(C)CC(=O)N1C [pd361] ([NMeA][hPhe(4-Cl)][NMeL][NMeL]A[NMeF][NMeV]T[Sar][NMeL]D-Piperidide; lactam N-11) here?
Its Caco-2 is 1.1e-06 cm/s.

Which Caco-2 does the source give for CC(C)C[C@H]1C(=O)N[C@@H](COC(C)(C)C)C(=O)N(C)[C@@H](Cc2ccccc2)C(=O)N(C)[C@@H](C)C(=O)N[C@H](C(=O)N2CCCCC2)CC(=O)N[C@H](C(C)C)C(=O)N(C)[C@@H](Cc2ccccc2)C(=O)N[C@@H](CCCc2ccccc2)C(=O)N(C)[C@@H](CC(C)C)C(=O)N[C@@H]([C@@H](C)O)C(=O)N(C)CC(=O)N1C [pd363] ([dV][NMeF][hhPhe][NMeL]T[Sar][NMeL]S(tBu)[NMeF][NMeA]D-Piperidide; lactam N-11) here?
The Caco-2 was 1.1e-06 cm/s.

With CC(C)C[C@@H]1NC(=O)[C@H](CCN2CCCC(F)(F)C2)N(C)C(=O)[C@@H](C(C)C)NC(=O)C[C@@H](C(=O)N2CCCCC2)NC(=O)[C@H](C)N(C)C(=O)[C@H](Cc2cccc(Cl)c2)N(C)C(=O)[C@H](CC(C)C)NC(=O)[C@H](CC(C)C)N(C)C(=O)CN(C)C(=O)[C@H]([C@@H](C)O)NC(=O)[C@H](Cc2ccccc2)N(C)C1=O [pd389] ([dV][NMeAbu(3,3-F2-piperidino)]L[NMeF]T[Sar][NMeL]L[NMePhe(3-Cl)][NMeA]D-Piperidide; lactam N-11) as the compound, how does the Caco-2 read?
The Caco-2 was 1.1e-06 cm/s.

Which Caco-2 does the source give for CCCCCN1CC(=O)N[C@@H](COC(C)(C)C)C(=O)N(C)[C@@H](Cc2ccccc2)C(=O)N(C)[C@@H](CC(C)C)C(=O)N[C@H](C(=O)N2CCCCC2)CC(=O)N[C@H](CC(C)C)C(=O)N(C)[C@@H](Cc2ccccc2)C(=O)N[C@@H]([C@@H](C)CC)C(=O)N(C)[C@@H](CC)C(=O)N[C@@H]([C@@H](C)O)C(=O)N(C)CC1=O [pd406] ([dL][NMeF]I[NMeAbu]T[Sar][NPentylGly]S(tBu)[NMeF][NMeL]D-Piperidide; lactam N-11) here?
Its Caco-2 is 1.1e-06 cm/s.

CCCN1CC(=O)N(C)[C@@H](Cc2ccccc2)C(=O)N[C@@H]([C@@H](C)CC)C(=O)N(C)[C@@H](CC(C)C)C(=O)N[C@@H]([C@@H](C)O)C(=O)N(CCC)CC(=O)N(C)[C@@H](Cc2ccccc2)C(=O)N(C)[C@@H](CC(C)C)C(=O)N[C@@H](COCC(C)(C)O)C(=O)N(C)[C@@H](C(C)C)C(=O)N[C@H](C(=O)N2CCCCC2)CC1=O [pd431] ([NPrGly][NMeF]I[NMeL]T[NPrGly][NMeF][NMeL]S(CH2CMe2OH)[NMeV]D-Piperidide; lactam N-11) was tested. Which Caco-2 did it give?
Its Caco-2 is 1.1e-06 cm/s.

For CCCN1CC(=O)N(C)[C@@H](CC(C)C)C(=O)N[C@@H](CC(C)C)C(=O)N(C)[C@@H](Cc2ccccc2)C(=O)N(C)[C@@H](C)C(=O)N[C@H](C(=O)N2CCCCC2)CC(=O)N[C@H](CC(C)C)C(=O)N(C)[C@@H](Cc2ccccc2)C(=O)N[C@@H](COCC(=O)NC(C)(C)C)C(=O)N(C)[C@@H](CC(C)C)C(=O)N[C@@H]([C@@H](C)O)C1=O [pd442] ([dL][NMeF]S(CH2CONHtBu)[NMeL]T[NPrGly][NMeL]L[NMeF][NMeA]D-Piperidide; lactam N-11), which Caco-2 is on record?
Its Caco-2 is 1.1e-06 cm/s.

With CCCCN1CC(=O)N(C)[C@@H](Cc2ccccc2)C(=O)N(C)[C@@H](CC(C)C)C(=O)N[C@@H](CC(C)C)C(=O)N(C)[C@@H](CC(C)C)C(=O)N[C@H](C(=O)N2CCCCC2)CC(=O)N(C)CC(=O)N(C)[C@@H](Cc2ccccc2)C(=O)N[C@@H](CCOCC)C(=O)N(C)[C@@H](CC(C)C)C(=O)N[C@@H]([C@@H](C)O)C1=O [pd445] ([Sar][NMeF][hSer](Et)[NMeL]T[NBuGly][NMeF][NMeL]L[NMeL]D-Piperidide; lactam N-11) as the compound, how does the Caco-2 read?
The Caco-2 was 1.1e-06 cm/s.

CC(C)C[C@H]1C(=O)N[C@H](C(=O)N2CCCCC2)CC(=O)N(C)CC(=O)N(C)[C@@H](Cc2ccccc2)C(=O)N[C@@H](C(C)C)C(=O)N(C)[C@@H](CC(C)C)C(=O)N[C@@H]([C@@H](C)O)C(=O)N(CCN2CCC(F)(F)CC2)CC(=O)N(C)[C@@H](Cc2ccccc2)C(=O)N(C)[C@@H](CC(C)C)C(=O)N[C@@H](COC(C)(C)C)C(=O)N1C [pd455] ([Sar][NMeF]V[NMeL]T[X8][NMeF][NMeL]S(tBu)[NMeL]D-Piperidide; lactam N-11) was tested. Which Caco-2 did it give?
The Caco-2 was 1.1e-06 cm/s.

For CC(C)C[C@H]1C(=O)N[C@H](C(=O)N2CCCCC2)CC(=O)N[C@H](C)C(=O)N2C[C@H](N3CCC(F)(F)CC3)C[C@@H]2C(=O)N[C@@H](COC(C)(C)C)C(=O)N(C)[C@@H](CC(C)C)C(=O)N(C)[C@@H](CC(C)C)C(=O)N(C)[C@@H](CC(C)C)C(=O)N[C@@H]([C@@H](C)O)C(=O)N(C)[C@@H](Cc2ccccc2)C(=O)N[C@@H](Cc2ccccc2)C(=O)N1C [pd457] ([dA][X10]S(tBu)[NMeL][NMeL][NMeL]T[NMeF]F[NMeL]D-Piperidide; lactam N-11), which Caco-2 is on record?
The Caco-2 was 1.1e-06 cm/s.

How did the Caco-2 turn out when CC[C@H]1NC(=O)C[C@@H](C(=O)N2CCCCC2)NC(=O)[C@H](CC(C)C)N(C)C(=O)[C@H](Cc2ccccc2)NC(=O)[C@@H]2C[C@H](N3CCC(F)(F)CC3)CN2C(=O)[C@H]([C@@H](C)O)NC(=O)[C@H](CC(C)C)N(C)C(=O)[C@H](CC(C)C)NC(=O)[C@H](CC(C)C)N(C)C(=O)[C@H](COC(C)(C)C)NC(=O)[C@H](CC(C)C)N(C)C1=O [pd462] ([dAbu][NMeL]S(tBu)[NMeL]L[NMeL]T[X13]F[NMeL]D-Piperidide; lactam N-11) was run?
Its Caco-2 is 1.1e-06 cm/s.

CCCCN1CC(=O)N(C)[C@@H](CC(C)C)C(=O)N[C@H](C(=O)N2CCCCC2)CC(=O)N(C)[C@@H](CC(C)C)C(=O)N[C@@H](CC(C)C)C(=O)N(C)[C@@H](CC(C)C)C(=O)N(C)[C@@H](Cc2cscn2)C(=O)N[C@@H](CC(C)C)C(=O)N(C)[C@@H](Cc2ccccc2)C(=O)N(C)[C@@H]([C@@H](C)CC)C(=O)N[C@@H](CCC(=O)NC)C1=O [pd465] ([NMeL]L[NMeL][NMeAla(4-thiazolyl)]L[NMeF][NMeI]E(NHMe)[NBuGly][NMeL]D-Piperidide; lactam N-11) was tested. Which Caco-2 did it give?
The Caco-2 was 1.1e-06 cm/s.

CCCC[C@@H](O)[C@@H]1NC(=O)[C@H](CC(C)C)N(C)C(=O)[C@H](CC(C)C)NC(=O)[C@H](Cc2ccccc2)N(C)C(=O)[C@@H](C)NC(=O)C[C@@H](C(=O)N2CCCCC2)NC(=O)[C@H](C)N(C)C(=O)[C@H](Cc2ccccc2)N(C)C(=O)[C@H](COC(C)(C)C)NC(=O)[C@H](CC(C)C)N(C)C(=O)CN(C)C1=O [pd466] ([dA][NMeF]L[NMeL][X12][Sar][NMeL]S(tBu)[NMeF][NMeA]D-Piperidide; lactam N-11) was tested. Which Caco-2 did it give?
The Caco-2 was 1.1e-06 cm/s.

How did the Caco-2 turn out when CC(C)C[C@H]1C(=O)N[C@@H](COC(C)(C)C)C(=O)N(C)[C@@H](Cc2ccccc2)C(=O)N(C)[C@@H](CC(C)C)C(=O)N[C@H](C(=O)N2CCCCC2)CC(=O)N[C@H](C(C)C)C(=O)N(C)[C@@H](C(C)C)C(=O)N[C@@H](Cc2ccc(C(F)F)cc2)C(=O)N(C)[C@@H](CC(C)C)C(=O)N[C@@H]([C@@H](C)O)C(=O)N(C)CC(=O)N1C [pd472] ([dV][NMeV][Phe(4-CHF2)][NMeL]T[Sar][NMeL]S(tBu)[NMeF][NMeL]D-Piperidide; lactam N-11) was run?
Its Caco-2 is 1.1e-06 cm/s.

CC(C)C[C@H]1C(=O)N[C@@H](COC(C)(C)C)C(=O)N(C)[C@@H](Cc2ccccc2)C(=O)N(C)[C@@H](CC(C)C)C(=O)N[C@H](C(=O)N2CCCCC2)CC(=O)N[C@H](C(C)C)C(=O)N(C)[C@@H](C(C)C)C(=O)N[C@@H](Cc2ccc(OC(F)F)cc2)C(=O)N(C)[C@@H](CC(C)C)C(=O)N[C@@H]([C@@H](C)O)C(=O)N(C)CC(=O)N1C [pd476] ([dV][NMeV]Y(CHF2)[NMeL]T[Sar][NMeL]S(tBu)[NMeF][NMeL]D-Piperidide; lactam N-11) was tested. Which Caco-2 did it give?
The Caco-2 was 1.1e-06 cm/s.
